Like-named read-outs stand apart in the source and are kept apart here.
Experiments:
Aedes aegypti = test: In vitro Warm Body assay, mosquitoes landing on treated warm body; format: in vivo; settings: for % of mosquitoes' repellency: normalised to landing with 100% ethanol
Description: (§1) The arthropod controlling effect according to the present invention is determined on mosquitoes using an adapted Warm Body assay as defined in Kröber T, Kessler S, Frei J, Bourquin M, Guerin P M. An in vitro assay for testing mosquito controlling compounds employing a warm body and carbon dioxide as a behavioral activator. J Am Mosq Control Assoc. 2010; 26:381-386.
(§2) The controlling effect according to the present invention is determined by testing the Warm Body assay against the yellow fever mosquito, Aedes aegypti Rockefeller strain. […] Observations of controlling efficacy were made on host-seeking females of uniform age, 5 to 10 days old selected as mentioned in the publication mentioned hereinabove. Tested hungry females had access to 10% sugar solution but were not blood-fed.
(§3) The published protocol has been adapted in not manually counting the landing mosquitoes but automatically using an automatic counting software, the switch from Anopheles gambiae to A. aegypti led to a decrease of mosquitoes' number placed in the tested cage due to the size difference (i.e. 30 mosquitoes instead of 50) and to an increase of lighting as A. aegypti is a diurnal mosquitoes (i.e. 150 lux instead of 4 lux).
as §2, with “A.” for “Aedes”
as §1, with “The” for “The arthropod”, “was assessed” for “is determined on mosquitoes”
as §3, with “Aedes” for “A.”
In this in-vitro assay the number of A. aegypti landing on a warm body treated with the tested stimuli was measured in order to assess the repellency effect. Three replicates were carried on the three different doses: 0.0016%, 0.04% and 1% in ethanol, using 25 A. aegypti 10-12 days old females per cage.
In this in-vitro assay, the number of Aedes aegypti landing on a warm body treated with the tested stimuli was measured in order to assess the repellency effect. Three replicates were carried on the three different doses: 0.0016%, 0.04% and 1% in ethanol.
In this in-vitro assay, the number of Aedes aegypti landing on a warm body treated with the tested stimuli was measured in order to assess the repellency effect. One replicate was carried at different doses ranging from 0.0016% up to 1% in ethanol.

Ixodes ricinus = test: In vitro Warm Plate Assay for ticks; format: in vivo; settings: for concentration at which the level of 85% of ticks affected is reached: Tables 10 and 12
Description: Repellent efficacy of the different compounds was assessed against the sheep tick, Ixodes ricinus. I. ricinus is one of the recommended model organisms mentioned by the Guidance on the European Biological Products Regulation [Vol II, Efficacy-Assessment & Evaluation (Parts B+C), v. 3.0, April 2018]. Observations of repellent efficacy were made on last stage nymphs.
The repellent efficacy was assessed using the protocol of the in-vitro Warm Plate Assay as defined in Kröber T, Bourquin M, Guerin P M. A standardized in vivo and in vitro test method for evaluating tick repellents. Pesticide Biochemistry and Physiology. 2013; 107 (2): 160-168.].
The mean±SD number of ticks Ixodes ricinus walking down (affected), falling (affected) or walking-up (non affected) from the warm plate treated with ethanol, N,N-diethyl-3-methylbenzamide, (2,5-dimethyl-2,3-dihydro-1H-inden-2yl)methanol (Ingredient 2) or (2,4,6-trimethyl-2,3-dihydro-1H-inden-2-yl)methanol (Ingredient 1) diluted in ethanol at 0.4 mg/ml and 10 mg/mL was assessed on n groups of 12 ticks (n=2-5).
In this in-vitro assay, the percentage of ticks Ixodes ricinus affected by the stimulus loaded on the warm plate was measured in order to assess the repellency effect. Twelve ticks were assessed per concentrations that goes from 0.0016% up to 1% in ethanol.
Using the same in-vitro setup, the effect on ticks behavior (n≥12) of different stimuli diluted in ethanol at 20% (w/w) was assessed overtime.

[1] = Ixodes ricinus, 0.04% (Table 10), read-out: percentage of ticks affected on the Warm Plate
[2] = Ixodes ricinus, 0.2% (Table 10), read-out: percentage of ticks affected on the Warm Plate
[3] = Ixodes ricinus, 1% (Table 10), read-out: percentage of ticks affected on the Warm Plate

CC(=O)C1(C)Cc2ccc(C)cc2C1 (racemic) [(+−)-1-(2,5-dimethyl-2,3-dihydro-1H-inden-2-yl)ethanone] was tested, and the “number of mosquitoes landed on the Warm Body” value (“number of mosquitoes landed” for short) (Aedes aegypti; 0.0016% in ethanol (Table 6)) was 119, the “number of mosquitoes landed” value (Aedes aegypti; 0.04% in ethanol (Table 6)) was 15 and the “number of mosquitoes landed” value (Aedes aegypti; 1% in ethanol (Table 6)) was 6. For the same compound, the pest or weed control at 0.04 % (Ixodes ricinus; [1]) was 0%, the pest or weed control at 0.2 % (Ixodes ricinus; [2]) was 42% and the pest or weed control at 1 % (Ixodes ricinus; [3]) was 100%.

CCN(CC)C(=O)c1cccc(C)c1 [DEET, N,N-diethyl-3-methylbenzamide, reference compound] was tested, and the “% of mosquitoes' repellency” value (Aedes aegypti; 0.00032% concentration) was 17%, the “% of mosquitoes' repellency” value (Aedes aegypti; 0.00071% concentration) was 10% and the “% of mosquitoes' repellency” value (Aedes aegypti; 0.0016% concentration) was 5%. For the same compound, the “mean ± SD numbers of mosquitoes landed on the Warm Body” value (“mean ± SD numbers of mosquitoes landed” below) (Aedes aegypti; 0.0016% dilution (Table 4)) was 53.3 ± 12.5, the “% of mosquitoes' repellency” value (Aedes aegypti; 0.0036% concentration) was 19% and the “% of mosquitoes' repellency” value (Aedes aegypti; 0.0053% concentration) was 46%. For the same compound, the “% of mosquitoes' repellency” value (Aedes aegypti; 0.0080% concentration) was 61%, the “% of mosquitoes' repellency” value (Aedes aegypti; 0.018% concentration) was 79% and the “% of mosquitoes' repellency” value (Aedes aegypti; 0.040% concentration) was 89%. For the same compound, the “mean ± SD numbers of mosquitoes landed” value (Aedes aegypti; 0.04% dilution (Table 4)) was 5.7 ± 1.0, the “% of mosquitoes' repellency” value (Aedes aegypti; 0.089% concentration) was 97% and the “% of mosquitoes' repellency” value (Aedes aegypti; 0.20% concentration) was 98%. The “% of mosquitoes' repellency” value (Aedes aegypti; 0.45% concentration) was 95%, the “% of mosquitoes' repellency” value (Aedes aegypti; 1% concentration) was 97% and the “mean ± SD numbers of mosquitoes landed” value (Aedes aegypti; 1% dilution (Table 4)) was 0.7 ± 0.3. For the same compound, the pest or weed control at 0.04 % (Aedes aegypti; Aedes aegypti, 0.04% in ethanol (FIG. 8), read-out: decrease of landings) was 92%, the “MEAN % affected (ticks)” value (Ixodes ricinus; 0.4 mg/mL in ethanol (Table 5)) was 50% and the “MEAN % affected (ticks)” value (Ixodes ricinus; 10 mg/mL in ethanol (Table 5)) was 96%.

With Cc1ccc2c(c1)[C@H]1OCOC[C@H]1C2 (racemic) [(4aRS,9bSR)-8-methyl-4,4a,5,9b-tetrahydroindeno[1,2-d][1,3]dioxin] the “number of mosquitoes landed” value (Aedes aegypti; 0.0016% in ethanol (Table 6)) was 103, the “number of mosquitoes landed” value (Aedes aegypti; 0.04% in ethanol (Table 6)) was 8 and the “number of mosquitoes landed” value (Aedes aegypti; 1% in ethanol (Table 6)) was 8. For the same compound, the pest or weed control at 0.04 % (Ixodes ricinus; [1]) was 8%, the pest or weed control at 0.2 % (Ixodes ricinus; [2]) was 33% and the pest or weed control at 1 % (Ixodes ricinus; [3]) was 85%.

For CC1CCC(C(C)(C)O)C(O)C1 (centres unmarked) [PMD, 2-(2-hydroxypropan-2-yl)-5-methylcyclohexan-1-ol, reference compound], the reduction of landing (Aedes aegypti; 0.0016% (Table 7)) was 11%, the “number of mosquitoes landed” value (Aedes aegypti; 0.0016% in ethanol (Table 7, one replicate)) was 58 and the “number of mosquitoes landed” value (Aedes aegypti; 0.008% in ethanol (Table 7, one replicate)) was 40. The “number of mosquitoes landed” value (Aedes aegypti; 0.0119% in ethanol (Table 7, one replicate)) was 36, the “number of mosquitoes landed” value (Aedes aegypti; 0.04% in ethanol (Table 7, one replicate)) was 8 and the “number of mosquitoes landed” value (Aedes aegypti; 0.0598% in ethanol (Table 7, one replicate)) was 1. For the same compound, the “number of mosquitoes landed” value (Aedes aegypti; 0.2% in ethanol (Table 7, one replicate)) was 1, the “number of mosquitoes landed” value (Aedes aegypti; 1% in ethanol (Table 7, one replicate)) was 0 and the “percentage of ticks affected overtime” value (Ixodes ricinus; 20% (w/w) in ethanol, 0.25 h post-application) was 42%. For the same compound, the “percentage of ticks affected overtime” value (Ixodes ricinus; 20% (w/w) in ethanol, 0.5 h post-application) was 42%, the “percentage of ticks affected overtime” value (Ixodes ricinus; 20% (w/w) in ethanol, 1 h post-application) was 83% and the “percentage of ticks affected overtime” value (Ixodes ricinus; 20% (w/w) in ethanol, 2 h post-application) was 50%. For the same compound, the “percentage of ticks affected overtime” value (Ixodes ricinus; 20% (w/w) in ethanol, 4 h post-application) was 8%, the “percentage of ticks affected overtime” value (Ixodes ricinus; 20% (w/w) in ethanol, 6 h post-application) was 17% and the “ticks' repellency overtime (in words)” value (Ixodes ricinus; 20% (w/w) in ethanol, Table 14) was “not efficient during these first time points”. It also gave a pest or weed control at 0.0016 % (Ixodes ricinus; Ixodes ricinus, 0.0016% in ethanol (Table 12), read-out: percentage of ticks affected on the Warm Plate) of 0%, a pest or weed control at 0.0053 % (Ixodes ricinus; Ixodes ricinus, 0.0053% in ethanol (Table 12), read-out: percentage of ticks affected on the Warm Plate) of 12% and a pest or weed control at 0.008 % (Ixodes ricinus; Ixodes ricinus, 0.008% in ethanol (Table 12), read-out: percentage of ticks affected on the Warm Plate) of 4%. The pest or weed control at 0.0119 % (Ixodes ricinus; Ixodes ricinus, 0.0119% in ethanol (Table 12), read-out: percentage of ticks affected on the Warm Plate) was 4%, the pest or weed control at 0.0178 % (Ixodes ricinus; Ixodes ricinus, 0.0178% in ethanol (Table 12), read-out: percentage of ticks affected on the Warm Plate) was 4% and the pest or weed control at 0.0267 % (Ixodes ricinus; Ixodes ricinus, 0.0267% in ethanol (Table 12), read-out: percentage of ticks affected on the Warm Plate) was 0%. It also gave a pest or weed control at 0.04 % (Ixodes ricinus; Ixodes ricinus, 0.04% in ethanol (Table 12), read-out: percentage of ticks affected on the Warm Plate) of 12%, a pest or weed control at 0.0598 % (Ixodes ricinus; Ixodes ricinus, 0.0598% in ethanol (Table 12), read-out: percentage of ticks affected on the Warm Plate) of 19% and a pest or weed control at 0.089 % (Ixodes ricinus; Ixodes ricinus, 0.089% in ethanol (Table 12), read-out: percentage of ticks affected on the Warm Plate) of 42%. It also gave a pest or weed control at 0.2 % (Ixodes ricinus; Ixodes ricinus, 0.2% in ethanol (Table 12), read-out: percentage of ticks affected on the Warm Plate) of 84%, a pest or weed control at 0.447 % (Ixodes ricinus; Ixodes ricinus, 0.447% in ethanol (Table 12), read-out: percentage of ticks affected on the Warm Plate) of 96% and a pest or weed control at 1 % (Ixodes ricinus; Ixodes ricinus, 1% in ethanol (Table 12), read-out: percentage of ticks affected on the Warm Plate) of 96%. For the same compound, the ticks affected (Ixodes ricinus; dose of 0.598%) was 19%.

In the case of OCC1Cc2ccccc2C1 [2,3-dihydro-1H-inden-2-ylmethanol], the “number of mosquitoes landed” value (Aedes aegypti; 0.0016% in ethanol (Table 6)) is reported as 32, the “number of mosquitoes landed” value (Aedes aegypti; 0.04% in ethanol (Table 6)) is reported as 1 and the pest or weed control at 0.04 % (Ixodes ricinus; [1]) is reported as 29%. The pest or weed control at 0.2 % (Ixodes ricinus; [2]) was 100%, the pest or weed control at 1 % (Ixodes ricinus; [3]) was 92% and the “concentration at which the level of 85% of ticks affected is reached” value (Ixodes ricinus) was 0.2%.

In the case of Cc1ccc2c(c1)CC(CO)C2 (racemic) [(+−)-(5-methyl-2,3-dihydro-1H-inden-2-yl)methanol], the “number of mosquitoes landed” value (Aedes aegypti; 0.0016% in ethanol (Table 6)) is reported as 65, the “number of mosquitoes landed” value (Aedes aegypti; 0.04% in ethanol (Table 6)) is reported as 7 and the “number of mosquitoes landed” value (Aedes aegypti; 1% in ethanol (Table 6)) is reported as 5. It also gave a pest or weed control at 0.04 % (Ixodes ricinus; [1]) of 0%, a pest or weed control at 0.2 % (Ixodes ricinus; [2]) of 100% and a pest or weed control at 1 % (Ixodes ricinus; [3]) of 100%. The “concentration at which the level of 85% of ticks affected is reached” value (Ixodes ricinus) was 0.2%.

— patent US20260068882A1, “ARTHROPOD CONTROLLING COMPOSITION” (Firmenich SA, priority 2019, published 2026)
